Patent publication US5786367A, “Cyclic amide derivatives” (Otsuka Pharmaceutical Co., Ltd., priority 1994, dated 1998)
Structures can show the parent of a compound that is named as a salt. Where two headings read alike, the source gives them in different places.

Columns and labels:
[1] = system: skin erythema; assay: Activity for inhibiting skin erythema caused by ultraviolet radiation; assay type: in vivo, albino guinea pig (Hartley strain, female, 7-8 week age); details: for inhibition in vivo at 3 %: Cavia porcellus; for 50% inhibitory concentration (IC50) for inhibiting the skin erythema: three concentrations within 0.1 to 10%
Procedure: The hairs covering in the back of albino guinea pig (Hartley strain, female, 7-8 week age) were shaved by using an electric hair clippers and a shaver. In the next day, the guinea pig was fixed in Bowlman's cage, then a light shield tape (adhesive plaster for patch test), having 4 round holes of 1.5 cm in diameter was adhered on the hair clipped portion so as to provide 4 sites (round holes) to be exposed to the ultraviolet rays. […] Each one of the test sample solutions was prepared by dissolving each test compounds in three kinds of concentrations within 0.1 to 10%, and applied.

[2] = system: skin homogenate of guinea pig; assay: Activity for inhibiting the formation of lipid peroxides (ultraviolet-B irradiated skin homogenate, TBA method); assay type: biochemical, albino guinea pig (Hartley strain, female); details: test compound 10^-4 M; UV 9.5 mW/cm^2, 60 minutes
Procedure: The activity for inhibiting the formation of lipid peroxides which are increasingly formed by exposed to the ultraviolet-B radiation to the skin homogenate of guinea pig was determined by a procedure of thiobarbituric acid method (TBA method).
The activity for inhibiting the formation of lipid peroxides can be evaluated by degree of decreasing the optical absorbance of the condensate of thus formed malondialdehyde with thiobarbituric acid, by adding a test sample of the cyclic amide derivative of the present invention to the homogenate.
That is, the hairs covering in the back of an albino guinea pig (Hartley strain, female) were clipped by using an electric hair clippers under anesthesia. After the enucleation of the hair clipped portion of the skin, the subcutaneous tissue of this skin was removed in cold physiological saline. Distilled water in an amount of 9 times by weight of the skin tissue was added to this skin subcutaneous tissue, then was subjected to homogenation and centrifugation (600 g, for 5 minutes) to obtain the supernatant liquid. 5 Microliters each of test sample solutions of various concentrations was added to 0.5 ml each of the supernatant liquid, then the ultraviolet ray in the intensity of 9.5 mW/cm^2 was irradiated for 60 minutes by using fluorescent lamps (TOSHIBA FL-20SE, manufactured by Toshiba Corporation) as a light source. As to the reference sample solution, the solvent for dissolution of the test compound was used in place of the test sample solution. After ultraviolet radiation, the amount of lipid peroxide being formed in the sample solution (TBA value) was measured by TBA method (cf. Analytical Biochemistry, 1979, Vol. 95, pp. 351-358), and the inhibition rate of lipid peroxide formation shown by the test sample was calculated by the following formula: [formula]

[3] = 3% concentration of test compound, 10 μl topical, UV 1.3-1.5 mW/cm^2 for 30 minutes, measured 24 hours later, read-out: Rate of activity for inhibiting the skin erythema

Row | Molecule | inhibition in vivo at 3 % [1, 3] [%] | Inhibition rate of lipid peroxide formation [2] | also measured
1 | 5,7-diallyl-3,4-dihydro-6-hydroxy-1-(2-hydroxybutyl)-2(1H)-quinolinone [Example 110] | – | – | Rate of activity for inhibiting the skin erythema ([1]; 3% concentration of test compound, 10 μl topical, UV 1.3-1.5 mW/cm^2 for 30 minutes, measured 24 hours later): 44%
2 | C=CCc1cc2c(cc1O)CCC(=O)N2CC=C(C)C [Example 10, 7-allyl-3,4-dihydro-6-hydroxy-1-prenyl-2(1H)-quinolinone] | 38 | 82% | –
3 | C=CCc1cc2c(cc1O)N(CC=C(C)C)C(=O)CC2 [Example 11, 6-Allyl-3,4-dihydro-7-hydroxy-1-prenyl-2(1H)-quinolinone] | – | 70% | –
4 | C=CCOc1cc2c(cc1CC=C)N(CC=C(C)C)C(=O)CC2 [Example 17, 7-allyl-6-allyloxy-3,4-dihydro-1-prenyl-2(1H)-quinolinone] | – | 85% | –
5 | C=CCOc1cc2c(cc1CC=C)CCC(=O)N2CC=C(C)C [Example 20, 6-allyl-7-allyloxy-3,4-dihydro-1-prenyl-2(1H)-quinolinone] | 37 | 81% | –
6 | C=CCc1cc2c(c(CC=C)c1O)NC(=O)CC2 [Example 25, 6,8-diallyl-3,4-dihydro-7-hydroxy-2(1H)-quinolinone] | – | 78% | –
7 | C=CCc1cc2c(c(CC=C)c1O)CCC(=O)N2 [Example 26, 5,7-diallyl-3,4-dihydro-6-hydroxy-2(1H)-quinolinone] | 36 | 80% | –
8 | C=CCc1cc2c(c(CC=C)c1O)CCC(=O)N2CC=C(C)C [Example 27, 5,7-diallyl-3,4-dihydro-6-hydroxy-1-prenyl-2(1H)-quinolinone] | 60 | 82% | 50% inhibitory concentration (IC50) for inhibiting the skin erythema ([1]; topical): 1.3 concentration in %
9 | C=CCc1cc2c(c(CC=C)c1O)N(CC=C(C)C)C(=O)CC2 [Example 28, 6,8-diallyl-3,4-dihydro-7-hydroxy-1-prenyl-2(1H)-quinolinone] | 30 | 80% | –
10 | C=CCc1cc2c(c(CC=C)c1O)CCC(=O)N2c1ccc(OC)cc1 [Example 32, 5,7-diallyl-3,4-dihydro-6-hydroxy-1-(4-methoxyphenyl)-2(1H)-quinolinone] | – | 87% | –
11 | C=CCc1cc2c(c(CC=C)c1O)CCC(=O)N2CCCCCCCCCCO [Example 33, 5,7-diallyl-3,4-dihydro-6-hydroxy-1-(10-hydroxy)-decyl-2(1H)-quinolinone] | 18 | 83% | 50% inhibitory concentration (IC50) for inhibiting the skin erythema ([1]; topical): 9.4 concentration in %
12 | C=CCc1cc2c(c(CC=C)c1O)NC(=O)CO2 [Example 35, 5,7-diallyl-6-hydroxy-3-(2H)-1,4-benzoxazinone] | 41 | – | 50% inhibitory concentration (IC50) for inhibiting the skin erythema ([1]; topical): 5.9 concentration in %
13 | C=CCc1cc2c(c(CC=C)c1O)OCC(=O)N2CC=C [Example 36, 7-hydroxy-4,6,8-triallyl-3(2H)-1,4-benzoxazinone] | 26 | – | 50% inhibitory concentration (IC50) for inhibiting the skin erythema ([1]; topical): 9.8 concentration in %
14 | C=CCc1cc2c(c(CC=C)c1O)N(CC=C)C(=O)CO2 [Example 37, 6-hydroxy-4,5,7-triallyl-3(2H)-1,4-benzoxazinone] | 39 | – | 50% inhibitory concentration (IC50) for inhibiting the skin erythema ([1]; topical): 7.7 concentration in %
15 | C=CCc1cc2c(sc(=O)n2CC=C)c(CC=C)c1O [Example 39, 6-hydroxy-3,5,7-triallylbenzothiazolinone] | 42 | 82% | 50% inhibitory concentration (IC50) for inhibiting the skin erythema ([1]; topical): 4.7 concentration in %
16 | C=CCc1cc2c(c(CC=C)c1O)CCC(=O)N2CCCCl [Example 42, 1-(3-chloropropyl)-5,7-diallyl-3,4-dihydro-6-hydroxy-2(1H)-quinolinone] | 45 | – | –
17 | C=CCc1cc2c(c(CC=C)c1O)CCC(=O)N2C1C=CCCC1 (stereo not drawn) [Example 45] | – | 95% | –
18 | C=CCc1cc2c(c(CC=C)c1O)CCC(=O)N2CC=C [Example 46] | – | 95% | –
19 | C=CCOc1ccc(CN2C(=O)CCc3c2cc(CC=C)c(O)c3CC=C)cc1 [Example 51] | – | 95% | –
20 | C=CCc1cc2c(c(CC=C)c1O)CCC(=O)N2Cc1ccc(OC)cc1 [Example 52] | – | 100% | –
21 | C=CCc1cc(CN2C(=O)CCc3c2cc(CC=C)c(O)c3CC=C)ccc1O [Example 53] | – | 95% | –
22 | C=CCc1cc2c(c(CC=C)c1O)CCC(=O)N2Cc1ccc(C)c(C)c1 [Example 54] | – | 96% | –

Row | Molecule | inhibition in vivo at 3 % [1, 3] [%] | Inhibition rate of lipid peroxide formation [2] | also measured
23 | C=CCc1cc2c(c(CC=C)c1O)CCC(=O)N2CC(=O)OCC [Example 57, 5,7-diallyl-1-(ethoxy-carbonylmethyl)-3,4-dihydro-6-hydroxy-2(1H)-quinolinone] | – | 78% | –
24 | C=CCc1cc2c(cc1O)CCC(=O)N2CCCCCCCCCCO [Example 62] | – | 81% | –
25 | C=CCc1ccc2c(c1O)N(CCCCCCCCCCO)C(=O)CC2 [Example 65] | – | 79% | –
26 | C=CCc1cc2c(c(CC=C)c1O)CCC(=O)N2CCCNC(=O)CCl [Example 69, 1-(3-chloroacetylaminopropyl)-5,7-diallyl-3,4-dihydro-6-hydroxy-2(1H)-quinolinone] | – | 78% | –
27 | C=CCc1cc2c(c(CC=C)c1O)CCC(=O)N2CCCN1CCCCC1 [Example 71, 5,7-diallyl-3,4-dihydro-6-hydroxy-1-[3-(piperidinopropyl)]-2(1H)-quinolinone] | 45 | – | –
28 | C=CCc1cc2c(c(CC=C)c1O)CCC(=O)N2CCCN1CCOCC1 [Example 72] | 33 | – | –
29 | C=CCc1cc2c(c(CC=C)c1O)CCC(=O)N2CCCNCCOC [Example 74] | – | 68% | –
30 | C=CCc1cc2c(c(CC=C)c1O)CCC(=O)N2CC(N)=O [Example 77, 1-(carbamoylmethyl)-5,7-diallyl-3,4-dihydro-6-hydroxy-2(1H)-quinolinone] | 50 | – | 50% inhibitory concentration (IC50) for inhibiting the skin erythema ([1]; topical): 2.7 concentration in %
31 | C=CCc1cc(CN2C(=O)CCc3c2ccc(O)c3CC=C)cc(OC)c1O [Example 78, 5-allyl-6-hydroxy-1-(3-allyl-4-hydroxy-5-methoxybenzyl)-3,4-dihydro-2(1H)-quinolinone] | – | 95% | –
32 | C=CCOc1cc2c(cc1C=CC)N(CC=C(C)C)C(=O)CC2 [Example 80, 6-allyloxy-3,4-dihydro-1-prenyl-7-(1-propenyl)-2(1H)-quinolinone] | – | 95% | –
33 | C=CCc1cc2c(c(CC=C)c1O)CCC(=O)N2CCCCNCCCC [Example 84, 1-(4-n-butylaminobutyl)-5,7-diallyl-3,4-dihydro-6-hydroxy-2(1H)-quinolinone.oxalate] | 31 | – | –
34 | C=CCc1cc2c(c(CC=C)c1O)CCC(=O)N2CCCCNC(C)(C)CO [Example 85, 5,7-Diallyl-3,4-dihydro-6-hydroxy-1-[4-(2-hydroxy-1,1-dimethyl)ethylamino]butyl-2-(1H)-quinolinone. oxalate] | 39 | – | –
35 | C=CCc1cc2c(c(CC=C)c1O)CCC(=O)N2CCCCN(CC)CC [Example 86, 5,7-Diallyl-1-(4-diethylaminobutyl)-3,4-dihydro-6-hydroxy-2(1H)-quinolinone.oxalate] | – | 71% | –
36 | C=CCc1cc2c(c(CC=C)c1O)CCC(=O)N2CCCCn1ccnc1 [Example 87, 5,7-Diallyl-3,4-dihydro-6-hydroxy-1-[4-(imidazol-1-yl)butyl]-2-(1N)-quinolinone.oxalate] | 28 | – | –
37 | C=CCc1cc2c(c(CC=C)c1O)CCC(=O)N2CCCn1cnnc1 [Example 88, 5,7-diallyl-3,4-dihydro-6-hydroxy-1-[3-(1,2,4-triazol-4-yl)propyl]-2(1H)-quinolinone] | 37 | – | –
38 | C=CCc1cc2c(c(CC=C)c1O)CCC(=O)N2CCCCP(=O)(OCC)OCC [Example 93, 5,7-diallyl-1-(4-diethoxy-phosphorylbutyl)-3,4-dihydro-6-hydroxy-2(1H)-quinolinone] | – | 73% | –
39 | C=CCc1cc2c(c(CC=C)c1O)CCC(=O)N2CCCCCCCCCCCC [Example 102] | 57 | – | 50% inhibitory concentration (IC50) for inhibiting the skin erythema ([1]; topical): 3.7 concentration in %
40 | C=CCc1cc2c(c(CC=C)c1O)CCC(=O)N2CCCCOC(C)=O [Example 104] | 31 | – | –
41 | C=CCc1cc2c(c(CC=C)c1O)CCC(=O)N2CCCCC(=O)OC [Example 105] | 44 | – | –
42 | C=CCc1cc2c(c(CC=C)c1O)CCC(=O)N2Cc1ccc(C(=O)OC)cc1 [Example 107, 5,7-Diallyl-3,4-dihydro-6-hydroxy-1-(4-methoxycarbonylbenzyl)-2(1H)-quinolinone] | 44 | – | –
43 | C=CCc1cc2c(c(CC=C)c1O)CCC(=O)N2CC(=O)[O-].[Na+] [Example 113, sodium (5,7-diallyl-6-hydroxy-1,2,3,4-tetrahydro-2-oxoquinolin-1-yl)acetate] | – | – | inhibition in vivo at 3 % ([1]; topical, 24 h, read-out: Rate of activity for inhibiting the skin erythema, 3% concentration of test compound, 10 μl topical, UV 1.3-1.5 mW/cm^2 for 30 minutes, measured 24 hours later): 52%; 50% inhibitory concentration (IC50) for inhibiting the skin erythema ([1]; topical): 2.5 concentration in %
44 | Cc1c(C)c2c(c(C)c1O)CCC(C)(CCCC(C)CCCC(C)CCCC(C)C)O2 (stereo not drawn) [Vitamin E, α-tocopherol, reference compound] | – | 77-79% | –
